Converted amounts (≈) assume the structure as drawn.
Key:
[1] = test system: MSSA; test: MIC against clinically isolated strains, MSSA; format: cell-based, methicillin sensitive Staphylococcus aureus; set-up: MICmode / MICrange: unit not given here; details: MSSA (14 strains)
Excerpt: (§1) Standard strains, including Staphylococcus aureus ATCC29213, S. pneumoniae ATCC49619, E. faecalis ATCC29212, are all available from the American Type Culture Collection.
(§2) Clinically isolated strains: There are total 120 clinical strains of gram-positive bacterium including: 37 strains of Staphylococcus aureus (consisting of 14 strains of methicillin sensitive Staphylococcus aureus MSSA and 23 strains of methicillin resistant Staphylococcus aureus MRSA); 27 strains of Streptococcus pneumoniae (consisting of 13 strains of penicillin sensitive Streptococcus pneumoniae PSSP and 14 strains of penicillin insensitive or resistant Streptococcus pneumoniae PISP+PRSP); 15 strains of Streptococcus pyogenes; 17 strains of Streptococcus agalactiae; 24 stains of Enterococcus faecium (consisting of 12 strains of vancomycin sensitive Enterococcus faecium and 12 strains of vancomycin resistant Enterococcus faecium).
(§3) (2) Tested compounds: Compound 13f was prepared by the methods above, with potency of over 98%; Linezolid was purchased from Pfizer, with potency of 100%.
(§4) Staphylococcus and Enterococcus faecium were incubated in Mueller-Hinton agar medium (MHA medium) at 35° C. for 16-20 h; S. pneumoniae was incubated in Cation-Adjusted Mueller-Hinton Broth medium (CAMHB medium) supplemented with 2.5-5.5% (v/v) lysed horse blood (LHB) at 35° C. for 20-24 h; and Streptococcus were incubated in sheep blood-containing medium (prepared by addition of 5% defibrinated sheep blood into MHA media) at 35° C. for 20-24 h in 5% CO2 environment (CO2 incubator). Before test of the compound activity, each stock of the bacteria strains was activated and colonized in the following manner: the stock was transferred and cultured in a liquid culture medium, the culture liquid was smeared onto an agar plate with an inoculating loop to obtain bacterial colonies on the plate after incubation, and then a colony of the bacteria was chose to be suspended into the liquid culture medium for performing the test of compound activity. As a result, fresh bacteria cells were applied to the test. The standard strains were used as sensitive bacterium to control the quality of the experiments, and a plate or tube containing no antibacterial compounds is used as a blank control for the growth of test strains.
(§5) The minimal inhibitory concentration (MIC) of the test compounds on the strains of Streptococcus pneumoniae was determined by a standard broth macrodilution method, while the MIC of the test compounds on the other bacteria stains was determined by standard agar double dilution methods. […] The MIC of the test compound to each strain of the bacteria was determined.

[2] = test system: PSSP; test: Minimum bactericidal concentration (MBC) test, PSSP; format: cell-based, penicillin sensitive Streptococcus pneumoniae; details: strain 09G343, PSSP
Procedure: as §4
(§6) The minimal inhibitory concentration (MIC) of the test compounds on the strains of Streptococcus pneumoniae was determined by a standard broth macrodilution method, while the MIC of the test compounds on the other bacteria stains was determined by standard agar double dilution methods. The concentration of the test compounds was in the range of 32 mg/L-0.016 mg/L. The bacterial suspensions to be tested were inoculated by a multipoint inoculator, and the inoculation amount at each point is 10^4 CFU. The MIC of the test compound to each strain of the bacteria was determined.
(§7) The MBC was determined by a tube double dilution method. Solutions of the test compounds was prepared and serially diluted. Each of the solutions was mixed with a bacterium suspension (10^6 CFU/mL), and then was incubated at 35° C. overnight. […]

[3] = test system: MRSA; test: Minimum bactericidal concentration (MBC) test, MRSA; format: cell-based, methicillin resistant Staphylococcus aureus
Procedure: as §4, §6, §7

[4] = test system: VRE; test: Minimum bactericidal concentration (MBC) test, VRE; format: cell-based, vancomycin resistant Enterococcus faecium
Procedure: as §4, §6
(§8) The MBC was determined by a tube double dilution method. Solutions of the test compounds was prepared and serially diluted. Each of the solutions was mixed with a bacterium suspension (10^6 CFU/mL), and then was incubated at 35° C. overnight. 0.1 mL of the culture supernatant of each tubes was inoculated on a plate containing no antibiotics, and then incubated at 35° C. for 18 h.

[5] = test system: gram-positive bacteria; test: MBC test, 10 strains of clinically isolated gram-positive bacteria; format: cell-based
Procedure: In order to investigate whether the antibacterial activity of Compound 13f is bacteriostatic or bactericidal to gram-positive bacteria, we tested its MBC on 10 strains of gram-positive bacteria (established by clinical isolation), results as shown in Table 4.
as §8

[6] = test system: VSE; test: Minimum bactericidal concentration (MBC) test, VSE; format: cell-based, vancomycin sensitive Enterococcus faecium
Procedure: as §4, §6, §8

[7] = test system: PSSP; test: MIC against clinically isolated strains, PSSP; format: cell-based, penicillin sensitive Streptococcus pneumoniae; set-up: MICmode / MICrange: unit not given here
Excerpt: as §1, §2, §3, §4, §5

[8] = test system: PNSP; test: MIC against clinically isolated strains, PNSP; format: cell-based, penicillin insensitive or resistant Streptococcus pneumoniae; set-up: MICmode / MICrange: unit not given here; details: PNSP (14 grains)
Excerpt: as §1, §2, §3, §4, §5

[9] = test system: MSSA; test: Minimum bactericidal concentration (MBC) test, MSSA; format: cell-based, methicillin sensitive Staphylococcus aureus; details: for MIC: MSSA
Procedure: as §4, §6, §8

[10] = test system: MRSA; test: MIC against clinically isolated strains, MRSA; format: cell-based, methicillin resistant Staphylococcus aureus; set-up: MICmode / MICrange: unit not given here; details: MRSA (23 strains)
Excerpt: as §1, §2, §3, §4, §5

[11] = test system: PNSSP; test: Minimum bactericidal concentration (MBC) test, PNSSP; format: cell-based, Streptococcus pneumoniae; details: strain 09J699, PNSSP
Procedure: as §4, §6, §7

[12] = test system: gram-positive bacteria; test: MIC against 120 strains of clinically isolated gram-positive bacteria; format: cell-based; details: 120 clinically isolated gram-positive strains
Excerpt: In order to further study the antibacterial spectrum of Compound 13f, we tested in vitro inhibitory activity of compound 13f on 120 strains of gram-positive bacteria established by clinical isolation, and the MIC values were shown in Table 3.
as §2, §5

[13] = Enterococcus, strain 09ZB145, VRE
[14] = Enterococcus faecium, strain 09D263, VSE
[15] = Streptococcus pneumoniae, PSSP (13 strains)
[16] = Staphylococcus aureus, strain 09U035, MSSA

CC(=O)NC[C@H]1CN(c2ccc(-n3cc(-c4ccccn4)cn3)c(F)c2)C(=O)O1 [Compound 13f, (S)-N-((3-(3-fluoro-4-(4-(pyridin-2-yl)-1H-pyrazol-1-yl)phenyl)-2-oxooxazolidin-5-yl)methyl)acetamide]
MICmode [1]: 1
MICrange [1]: 0.5-1
MIC50 ([1]; Staphylococcus aureus): 1 ng/mL (≈ 2.53 nM)
MIC90 ([1]; Staphylococcus aureus): 1 ng/mL (≈ 2.53 nM)
MBC ([2]; Streptococcus pneumoniae): 1 ng/mL (≈ 2.53 nM)
MIC ([2]; Streptococcus pneumoniae): 0.5 ng/mL (≈ 1.26 nM)
MBC/MIC [2]: 2
MBC/MIC ([3]; strain 09L075, MRSA): 2
MIC value ([3]; strain 09L075, MRSA): 2 ng/mL (≈ 5.06 nM)
MBC/MIC ([3]; strain 09N120, MRSA): 1
MBC [4, 13]: 8 ng/mL (≈ 20.2 nM)
MIC [4, 13]: 4 ng/mL (≈ 10.1 nM)
MBC value ([4]; strain 09ZB137, VRE): 8 ng/mL (≈ 20.2 nM)
MBC/MIC ([4]; strain 09ZB137, VRE): 2
MIC value ([4]; strain 09ZB137, VRE): 4 ng/mL (≈ 10.1 nM)
MBC/MIC ([4]; strain 09ZB145, VRE): 2
MBC/MIC ratio ([5]; 3 of 4 tested strains of E. faecalis): 4
ratio of MBC/MIC ([5]; Staphylococcus sp. and Streptococcus pneumoniae): 1-2
ratio of MBC/MIC ([5]; all the 10 tested strains): ≤ 4
bacteriostatic or bactericidal ([5]; all the 10 tested strains, MBC/MIC ≦4): bactericidal effect
MBC [6, 14]: 8 ng/mL (≈ 20.2 nM)
MIC [6, 14]: 4 ng/mL (≈ 10.1 nM)
MBC/MIC ([6]; strain 09D263, VSE): 2
MBC value ([6]; strain 09H202, VSE): 8 ng/mL (≈ 20.2 nM)
MBC/MIC ([6]; strain 09H202, VSE): 2
MIC value ([6]; strain 09H202, VSE): 4 ng/mL (≈ 10.1 nM)
MICrange ([7]; PSSP (13 grains)): 0.5-1
MICmode ([7]; PSSP (13 strains)): 1
MIC50 [7, 15]: 1 ng/mL (≈ 2.53 nM)
MIC90 [7, 15]: 1 ng/mL (≈ 2.53 nM)
MICmode [8]: 0.5
MICrange [8]: 0.5-1
MIC50 ([8]; Streptococcus pneumoniae): 0.5 ng/mL (≈ 1.26 nM)
MIC90 ([8]; Streptococcus pneumoniae): 1 ng/mL (≈ 2.53 nM)
MIC ([9]; Staphylococcus aureus, strain 09O077, MSSA): 1 ng/mL (≈ 2.53 nM)
MIC [9, 16]: 2 ng/mL (≈ 5.06 nM)
MBC [9, 16]: 2 ng/mL (≈ 5.06 nM)
MBC value ([9]; strain 09O077, MSSA): 2 ng/mL (≈ 5.06 nM)
MBC/MIC ([9]; strain 09O077, MSSA): 2
MBC/MIC ([9]; strain 09U035, MSSA): 1
MICmode [10]: 1
MICrange [10]: 0.5-1
MIC50 ([10]; Staphylococcus aureus): 1 ng/mL (≈ 2.53 nM)
MIC90 ([10]; Staphylococcus aureus): 1 ng/mL (≈ 2.53 nM)
MBC ([11]; Streptococcus pneumoniae): 2 ng/mL (≈ 5.06 nM)
MIC ([11]; Streptococcus pneumoniae): 1 ng/mL (≈ 2.53 nM)
MBC/MIC [11]: 2
antibacterial activity on test strains compared with Linezolid [12]: almost the same with that of Linezolid

From patent US8946436B2, “Oxazolidinone compounds and their uses in preparation of antibiotics” (Sichuan Gooddoctor Pharmaceutical Group Co., Ltd., priority 2011, dated 2015)
